Experimental data reported in patent publication US20260224714A1, “CYCLING LYSOSOMAL TARGETING ANTIBODY CONJUGATES” (Lycia Therapeutics, Inc., priority 2023, published 2026).

Tests used:
Assay type in all cases: cell-based
[1] = tested on: Alexa Fluor647 labelled human IgE; assay: Uptake assay: internalization of Alexa Fluor 647 labelled IgE in wild type HepG2 cells (Example 6); settings: equimolar conjugate and AF647 IgE, 2 hours, median cellular AF647 intensity by flow cytometry, normalized to unconjugated parent protein
Method: (§1) The following experiments were performed with HepG2 hepatocellular carcinoma cells, grown in Eagle's Minimal Essential Media (EMEM) supplemented with 10% FBS and penicillin/streptomycin.
(§2) HepG2 cells (25,000) were plated in 96-well plates 48 hours before the experiment was performed. On the day of the experiment, indicated the conjugate was mixed with an equimolar stock of Alexa Fluor647 labelled human IgE (Enzo Life Sciences, BPD-DIA-HE 1) in fresh EMEM as a 600 nM stock. The precomplexed conjugate:IgE mixture was incubated at room temperature for 30 minutes. During the precomplexing step, media from HepG2 was removed, and 40 ul of EMEM with 1/100 Fc Receptor Blocking Solution (Biolegend Human TruStain FcX, 422302) was added. Cells incubated in the receptor blocking solution for 10 minutes while making serial dilutions (1:3) of conjugate:IgE stock solution in EMEM. 40 ul of the conjugate:IgE mixture in EMEM was then added to cells (six dilutions, with final concentrations ranging from 300 nM to 1.23 nM) for 2 hours before washing with DPBS and detaching with 0.25% Trypsin/EDTA. Cells were pelleted in 96-well conical bottom plates, washed once with FACS Buffer with BSA (Rockland Immunochemicals), and resuspended in FACS Buffer with BSA. Uptake of fluorescently labelled IgE was measured by analyzing median cellular AF647 intensity by flow cytometry.
(§3) Cells were incubated with equimolar ratio of conjugate and AF647 IgE at indicated concentrations, with data normalized to unconjugated parent protein (Oma S35HWY57H-LC).

recombinant IgE = assay: Degradation of super-stoichiometric levels of target in HepG2 cells (Example 13, Table 31); settings: 1 nM conjugate and 25 nM IgE for three days, (A-B)/C IgE depleted relative to conjugate, average of two replicate wells
Method: as §1
For evaluation of compounds in a high throughput format, 25,000 HepG2 cells were plated in a 96-well plate. The following day, 50 ul of 1 nM conjugate and 25 nM recombinant IgE in EMEM were added to the cells. 50 ul of the initial stock of conjugate:IgE was saved to quantify for an initial time point. Three days later, the media was collected from cells, and both initial and 72 hour time points were quantified for IgE concentration using the MSD assay.
HepG2 cells were incubated in media containing 1 nM conjugate and 25 nM IgE for three days. Concentrations of IgE at beginning and end of experiment were quantified by ELISA-based assay. Molar equivalents of IgE depleted relative to conjugate added are shown, calculated as (A-B)/C, where A is the initial concentration of IgE, B is the concentration of IgE at day three, and C is the concentration of conjugate. Reported values are the average of the values of two replicate wells.

[2] = tested on: LysoLight-labelled human IgE; assay: Lysosomal degradation of LysoLight-labelled IgE in HepG2 cells, live cell imaging (Example 7); settings: equimolar conjugate:LysoLight IgE, area under the curve of deep red fluorescence over three days, normalized to unconjugated parent protein
Method: as §1
HepG2 cells (15,000) were plated in 96-well plates 72 hours before performing the experiment. On the day of the experiment, indicated the conjugate was diluted in fresh EMEM and mixed with an equimolar stock of LysoLight-labelled human IgE (Enzo Life Sciences, BPD-DIA-HE1), at 200 nM of each compound. The precomplexed conjugate:IgE mixture was incubated at room temperature for 30 minutes. During the precomplexing step, media from HepG2 was removed, and 40 ul of EMEM with 1/100 Fc Receptor Blocking Solution (Biolegend Human TruStain FcX, 422302) was added. Cells incubated in the receptor blocking solution for 10 minutes while making serial dilutions (1:3) of conjugate:IgE stock solution in EMEM. 40 ul of the conjugate:IgE mixture in EMEM was then added to cells (five dilutions, with final concentrations ranging from 100 nM to 1.23 nM). Cells were placed in an IncuCyte Live-Cell Analysis System (Sartorius) for long term live cell imaging analysis (10× magnification, 3 images per well). One hour after addition of compound, image acquisition to measure red fluorescence from the LysoLight probe was started, with further Images collected every hour for 72 hours. Fluorescence of the LysoLight probe only occurs when cleaved by lysosomal cathepsin proteases, confirming lysosomal delivery and degradation of target. After 72 hours, mean red fluorescence was measured for each time point, and the area under the curve of fluorescence overtime was used to measure total degradation over the 3-day time period.

human IgE = assay: Degradation of initial and subsequent dose of target in HepG2 cells (Example 12, Table 30); settings: normalized to unconjugated; for Normalized Fluorescence Post Wash Median Green: after wash, probe-conjugated IgE added for 4 hours, subsequent dose of target; for Normalized Fluorescence Precomplex Median Deep Red: precomplexed equimolar conjugate:IgE (cathepsin-cleavable quenched fluorescent probe) added for 2 hours, initial dose of target
Method: as §1
HepG2 cells (25,000) were plated in 96-well plates 48 hours before performing the experiment. On the day of the experiment, indicated conjugate was diluted in fresh EMEM as a 2× stock, and mixed with an equimolar stock of human IgE (Enzo Life Sciences, BPD-DIA-HE 1) conjugated to a cathepsin-cleavable quenched fluorescent probe. The precomplexed conjugate:IgE mixture was incubated at 37 degrees Celsius for 30 minutes. Media from HepG2 was removed, and conjugate:IgE mixture in EMEM was added to cells for 2 hours. Cells were then placed on ice to prevent trafficking/recycling during wash steps, and washed once with DPBS, once with sodium acetate buffer (20 mM, 150 mM NaCl, pH 5.2), once with Earle's Balanced Salt Solution (EBSS) adjusted to pH 2.5, and once again with DPBS, to remove conjugate from media and cell surface. Afterwards, 100 ul of prewarmed (to 37 degrees Celsius) EMEM with cathepsin-cleavable quenched fluorescent probe-conjugated IgE was added to cells for 4 hours before washing with DPBS and detaching with 0.25% Trypsin/EDTA. Cells were pelleted in 96-well conical bottom plates, washed once with FACS Buffer with BSA (Rockland Immunochemicals), resuspended FACS Buffer with BSA and median 488 and 647 intensity was analyzed by flow cytometry. Delivery of labelled IgE to the lysosome and subsequent cleavage of initial precomplexed IgE was measured by analyzing median cellular 647 intensity, while cleavage of the post wash addition of IgE, which should only be degraded by recycling conjugates which released the first round of precomplexed IgE, was analyzed by median cellular 488 intensity. HepG2 cells were treated with human IgE (Enzo Life Sciences, BPD-DIA-HE1) conjugated to a cathepsin-cleavable quenched deep red (647) fluorescent probe precomplexed to conjugate fortwo hours, then washed, and fresh media with IgE conjugated to a green (488) cathepsin-cleavable fluorescent probe was then added without conjugate. […] Fluorescence values were measured by FACS and normalized to unconjugated parent protein. Reported values are the average of the values of two replicate wells.

HepG2 cells = assay: Externalization of conjugates from a cell following internalization (cycling), high-throughput format (Example 11); settings: 50 nM conjugate 1 hour, stringent washes, Alexa Fluor 647-labelled a-human IgG 1 hour, FACS, normalized to unconjugated parent protein, average of two replicate wells
Method: as §1
The method was also adapted to a high-throughput format. In this assay, 25,000 HepG2 cells were plated in 96-well plates 48 hours before performing the experiment. The day of the experiment, cells were incubated with conjugate at indicated concentrations for 1 hour. Cells were then placed on ice to prevent trafficking/recycling during wash steps, and washed once with DPBS, once with sodium acetate buffer (20 mM, 150 mM NaCl, pH 5.2), once with Earle's Balanced Salt Solution (EBSS) adjusted to pH 2.5, and once again with DPBS, to remove conjugate from media and cell surface. Afterwards, 100 ul of prewarmed (to 37° C.) EMEM with 1 μg/ml of human a-IgG antibody conjugated to Alexa Fluor647 fluorophores was added to cells for 1 hour before washing with DPBS and detaching with 0.25% Trypsin/EDTA. Cells were pelleted in 96-well conical bottom plates, washed once with FACS Buffer with BSA (Rockland Immunochemicals), resuspended FACS Buffer with BSA and median AF647 intensity was analyzed by flow cytometry. The amount of conjugate capable of cycling to the cell surface (being externalized from the cell) and binding to the Alexa Fluor647 labelled α-IgG was measured by analyzing median cellular 647 fluorescence intensity by flow cytometry. […]. Reported values are the average of the values of two replicate wells.

[3] = tested on: Alexa Fluor647 labelled human IgE; assay: Uptake assay: internalization of Alexa Fluor 647 labelled IgE in ASGPR1/2 KO HepG2 cells (Example 6); settings: equimolar conjugate and AF647 IgE, normalized to unconjugated parent protein
Method: as §1, §2, §3

With `CN1CCN(C[C@H]2OC[C@H](Nc3nc(OCCOCCOCCNC(=O)NCCCC(CCCNC(=O)NCCOCCOCCOc4cc(C(F)(F)F)nc(N[C@H]5CO[C@H](CN6CCN(C)CC6)[C@H](O)[C@@H]5O)n4)(CCCNC(=O)NCCOCCOCCOc4cc(C(F)(F)F)nc(N[C@H]5CO[C@H](CN6CCN(C)CC6)[C@H](O)[C@@H]5O)n4)NC(=O)CCOCCOCCOCCNS(=O)(=O)c4ccc(N5C(=O)C=CC5=O)cc4)cc(C(F)(F)F)n3)[C@@H](O)[C@H]2O)CC1` [Compound 2312] the “Normalized Fluorescence 3.7 nM WT” value [1] was 64.9, the “Normalized Fluorescence 100 nM WT” value [1] was 242.9 and the “Average Degradation (Molar equivalents)” value (recombinant IgE) was 4.1 Molar equivalents. For the same compound, the “Normalized Fluorescence 3.7 nM” value [2] was 11.1, the “Normalized Fluorescence 100 nM” value [2] was 4.2 and the “Normalized Fluorescence Post Wash Median Green” value (human IgE) was 3.0. For the same compound, the “Normalized Fluorescence Precomplex Median Deep Red” value (human IgE) was 3.5, the “Normalized Fluorescence” value (HepG2 cells) was 44.5 and the “Normalized Fluorescence 100 nM ASGPR KO” value [3] was 1.0.

For `CC(=O)N[C@@H]1[C@@H](O)[C@@H](O)[C@@H](CO)O[C@@H]1CCCOCCOCCNC(=O)NCCCC(CCCNC(=O)NCCOCCOCCC[C@H]1O[C@H](CO)[C@H](O)[C@H](O)[C@H]1NC(C)=O)(CCCNC(=O)NCCOCCOCCC[C@H]1O[C@H](CO)[C@H](O)[C@H](O)[C@H]1NC(C)=O)NC(=O)NCOCCOCCOCCNS(=O)(=O)c1ccc(N2C(=O)C=CC2=O)cc1` [Compound 2313], the “Normalized Fluorescence 3.7 nM WT” value [1] was 89.1, the “Normalized Fluorescence 100 nM WT” value [1] was 259.1 and the “Average Degradation (Molar equivalents)” value (recombinant IgE) was 7.5 Molar equivalents. For the same compound, the “Normalized Fluorescence 3.7 nM” value [2] was 13.0, the “Normalized Fluorescence 100 nM” value [2] was 4.1 and the “Normalized Fluorescence Post Wash Median Green” value (human IgE) was 3.2. For the same compound, the “Normalized Fluorescence Precomplex Median Deep Red” value (human IgE) was 3.5, the “Normalized Fluorescence” value (HepG2 cells) was 36.4 and the “Normalized Fluorescence 100 nM ASGPR KO” value [3] was 1.0.

In the case of `CC(=O)N[C@@H]1[C@@H](O)[C@@H](O)[C@@H](CO)O[C@@H]1CCCOCCOCCNC(=O)NCCCC(CCCNC(=O)NCCOCCOCCC[C@H]1O[C@H](CO)[C@H](O)[C@H](O)[C@H]1NC(C)=O)(CCCNC(=O)NCCOCCOCCC[C@H]1O[C@H](CO)[C@H](O)[C@H](O)[C@H]1NC(C)=O)NC(=O)NCCOCCOCCOCCNC(=O)c1ccc(N2C(=O)C=CC2=O)cc1` [Compound 2314], the “Normalized Fluorescence 3.7 nM WT” value [1] is reported as 69.0, the “Normalized Fluorescence 100 nM WT” value [1] is reported as 265.7 and the “Average Degradation (Molar equivalents)” value (recombinant IgE) is reported as 6.5 Molar equivalents. The “Normalized Fluorescence 3.7 nM” value [2] was 13.9, the “Normalized Fluorescence 100 nM” value [2] was 3.9 and the “Normalized Fluorescence Post Wash Median Green” value (human IgE) was 3.5. For the same compound, the “Normalized Fluorescence Precomplex Median Deep Red” value (human IgE) was 3.6, the “Normalized Fluorescence” value (HepG2 cells) was 40.5 and the “Normalized Fluorescence 100 nM ASGPR KO” value [3] was 1.0.

For `CC(=O)N[C@@H]1[C@@H](O)[C@@H](O)[C@@H](CO)O[C@@H]1CCCOCCOCCNC(=O)NCCCC(CCCNC(=O)NCCOCCOCCC[C@H]1O[C@H](CO)[C@H](O)[C@H](O)[C@H]1NC(C)=O)(CCCNC(=O)NCCOCCOCCC[C@H]1O[C@H](CO)[C@H](O)[C@H](O)[C@H]1NC(C)=O)NC(=O)NCCOCCOCCOCCNS(=O)(=O)c1ccc(N2C(=O)C=CC2=O)cc1` [Compound 2315], the “Normalized Fluorescence 3.7 nM WT” value [1] was 77.7, the “Normalized Fluorescence 100 nM WT” value [1] was 275.7 and the “Average Degradation (Molar equivalents)” value (recombinant IgE) was 4.5 Molar equivalents. The “Normalized Fluorescence 3.7 nM” value [2] was 15.6, the “Normalized Fluorescence 100 nM” value [2] was 4.0 and the “Normalized Fluorescence Post Wash Median Green” value (human IgE) was 3.1. The “Normalized Fluorescence Precomplex Median Deep Red” value (human IgE) was 3.3, the “Normalized Fluorescence” value (HepG2 cells) was 48.8 and the “Normalized Fluorescence 100 nM ASGPR KO” value [3] was 1.1.
